Source: patent US12668600B2 (Kumquat Biosciences Inc., priority 2023, dated 2026)

Experiments:
Assay type in all cases: biochemical
[1] = target: T1, KRAS G12D (Homo sapiens, UniProt P01116, G12D); assay: HTRF KRAS-SOS1 interaction assay, KRAS G12D; settings: binned ≤2 μM / >2 μM, read-out: Inhibition of KRAS G12D (IC50)
T1 construct: made in house; host or cells: E. coli, e.g. BL21 (DE3)
In short: (§1)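 Inhibition of the KRAS–SOS1 interaction was measured by HTRF (ex 337, em 620/665 nm) after ≥~10 min incubation. Donor: anti-GST-Eu on GST-KRAS; acceptor: anti-6His-XL665 on His-hSOS1, in HEPES pH 7.4 buffer with DTT, BSA and Igepal. Compounds in duplicate at 0.01–10 μM; IC50 from emission ratio.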

[2] = target: T2, KRAS G12V (Homo sapiens, UniProt P01116, G12V); assay: HTRF KRAS-SOS1 interaction assay, KRAS G12V; settings: binned ≤2 μM / >2 μM, read-out: Inhibition of KRAS G12V (IC50)
T2 construct: made in house; host or cells: E. coli, e.g. BL21 (DE3)
T2 sequence (P01116 1-188 isoform P01116-2 G12V): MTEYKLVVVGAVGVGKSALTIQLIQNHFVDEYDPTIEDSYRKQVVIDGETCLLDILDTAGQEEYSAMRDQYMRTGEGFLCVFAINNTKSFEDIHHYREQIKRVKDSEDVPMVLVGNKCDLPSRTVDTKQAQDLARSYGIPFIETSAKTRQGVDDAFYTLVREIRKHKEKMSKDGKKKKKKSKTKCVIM
In short: as §1

[3] = target: T3, KRAS WT (Homo sapiens, UniProt P01116); assay: HTRF KRAS-SOS1 interaction assay, wildtype KRAS; settings: binned ≤2 μM / >2 μM, read-out: Inhibition of KRAS WT (IC50)
T3 construct: made in house; host or cells: E. coli, e.g. BL21 (DE3)
T3 sequence (P01116 1-188 isoform P01116-2): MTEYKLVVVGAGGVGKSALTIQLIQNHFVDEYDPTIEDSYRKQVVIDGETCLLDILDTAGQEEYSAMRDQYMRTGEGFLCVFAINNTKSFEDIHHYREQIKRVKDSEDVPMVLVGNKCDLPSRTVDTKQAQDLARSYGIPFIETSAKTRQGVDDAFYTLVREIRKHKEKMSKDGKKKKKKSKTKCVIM
In short: as §1

[4] = target: T4, KRAS G12S (Homo sapiens, UniProt P01116, G12S); assay: HTRF KRAS-SOS1 interaction assay, KRAS G12S; settings: binned ≤2 μM / >2 μM, read-out: Inhibition of KRAS G12S (IC50)
T4 construct: made in house; host or cells: E. coli, e.g. BL21 (DE3)
T4 sequence (P01116 1-188 isoform P01116-2 G12S): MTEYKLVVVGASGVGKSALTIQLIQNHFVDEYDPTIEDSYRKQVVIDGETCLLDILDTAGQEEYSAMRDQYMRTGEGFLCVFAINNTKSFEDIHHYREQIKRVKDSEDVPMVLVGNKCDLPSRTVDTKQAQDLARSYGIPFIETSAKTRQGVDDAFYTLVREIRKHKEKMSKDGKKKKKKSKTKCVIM
In short: as §1

T1 sequence (P01116 1-188 isoform P01116-2 G12D): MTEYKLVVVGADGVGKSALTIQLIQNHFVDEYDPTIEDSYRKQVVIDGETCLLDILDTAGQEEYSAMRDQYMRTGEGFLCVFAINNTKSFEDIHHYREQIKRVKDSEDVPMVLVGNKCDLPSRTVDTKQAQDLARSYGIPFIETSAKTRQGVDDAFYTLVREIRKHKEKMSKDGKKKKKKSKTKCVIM

SMILES	IC50 [1] [nM]	IC50 [2] [nM]	IC50 [3] [nM]	IC50 [4] [nM]
CO[C@H]1CCN(C)[C@@H]1[C@H](C)Oc1nc2c3c(c(C(F)(F)F)c(-c4ccc(F)c5sc(N)c(C#N)c45)c(F)c3n1)OCCN2[C@H](C)c1cc(F)cnc1N [Compound 630, 2-amino-4-(4-((R)-1-(2-amino-5-fluoropyridin-3-yl)ethyl)-10-fluoro-2-((S)-1-((2R,3S)-3-methoxy-1-methylpyrrolidin-2-yl)ethoxy)-8-(trifluoromethyl)-5,6-dihydro-4H-[1,4]oxazepino[5,6,7-de]quinazolin-9-yl)-7-fluorobenzo[b]thiophene-3-carbonitrile]	≤ 2000	≤ 2000	≤ 2000	≤ 2000
C[C@H](c1cccnc1N)N1CCOc2c(Cl)c(-c3cccc4sc(N)c(C#N)c34)c(F)c3nc(OC[C@@H]4CCCN4C)nc1c23 [Compound 612, 2-amino-4-(4-((R)-1-(2-aminopyridin-3-yl)ethyl)-8-chloro-10-fluoro-2-(((S)-1-methylpyrrolidin-2-yl)methoxy)-5,6-dihydro-4H-[1,4]oxazepino[5,6,7-de]quinazolin-9-yl)benzo[b]thiophene-3-carbonitrile]	≤ 2000	≤ 2000	≤ 2000	≤ 2000
N#Cc1c(N)sc2c(F)ccc(-c3c(C(F)(F)F)c4c5c(nc(OC[C@@]67CCCN6C[C@H](F)C7)nc5c3F)N([C@H](CCC(F)(F)F)c3cccnc3N)CCO4)c12 (atropisomer, axis not shown; (aS)) [Compound 614, 2-amino-4-((S)-4-((R)-1-(2-aminopyridin-3-yl)-4,4,4-trifluorobutyl)-10-fluoro-2-(((2R,7aS)-2-fluorotetrahydro-1H-pyrrolizin-7a (5H)-yl)methoxy)-8-(trifluoromethyl)-5,6-dihydro-4H-[1,4]oxazepino[5,6,7-de]quinazolin-9-yl)-7-fluorobenzo[b]thiophene-3-carbonitrile]	≤ 2000	≤ 2000	≤ 2000	≤ 2000
Cc1ccc([C@@H](C)N2CCOc3c(Cl)c(-c4ccc(F)c5sc(N)c(C#N)c45)c(F)c4nc(OC[C@@]56CCCN5C[C@H](F)C6)nc2c34)c(N)n1 [Compound 736, 2-amino-4-(4-((R)-1-(2-amino-6-methylpyridin-3-yl)ethyl)-8-chloro-10-fluoro-2-(((2R,7aS)-2-fluorotetrahydro-1H-pyrrolizin-7a(5H)-yl)methoxy)-5,6-dihydro-4H-[1,4]oxazepino[5,6,7-de]quinazolin-9-yl)-7-fluorobenzo[b]thiophene-3-carbonitrile]	≤ 2000	≤ 2000	≤ 2000	≤ 2000
N#Cc1c(N)sc2c(F)ccc(-c3c(C(F)(F)F)c4c5c(nc(OC[C@@]67CCCN6CC(=C(F)F)C7)nc5c3F)N([C@H](CCC(F)(F)F)c3cc(F)cnc3N)CCO4)c12 [Compound 640, 2-amino-4-(4-((R)-1-(2-amino-5-fluoropyridin-3-yl)-4,4,4-trifluorobutyl)-2-(((S)-2-(difluoromethylene)tetrahydro-1H-pyrrolizin-7a(5H)-yl)methoxy)-10-fluoro-8-(trifluoromethyl)-5,6-dihydro-4H-[1,4]oxazepino[5,6,7-de]quinazolin-9-yl)-7-fluorobenzo[b]thiophene-3-carbonitrile]	≤ 2000	≤ 2000	≤ 2000	≤ 2000
C[C@H](c1cncnc1N)N1CCOc2c(C(F)(F)F)c(-c3cccc4sc(N)c(C#N)c34)c(F)c3nc(OC[C@@]45CCCN4C[C@H](F)C5)nc1c23 (single isomer, unassigned) [Compound 723]	≤ 2000	≤ 2000	≤ 2000	≤ 2000
C[C@H](c1nccnc1N)N1CCOc2c(C(F)(F)F)c(-c3ccc(F)c4sc(N)c(C#N)c34)c(F)c3nc(OC[C@@]45CCCN4C[C@H](F)C5)nc1c23 (single isomer, unassigned) [Compound 797]	> 2000	> 2000	> 2000	> 2000
N#Cc1c(N)sc2c(F)ccc(-c3c(C(F)(F)F)c4c5c(nc(OC[C@@]67CCCN6C[C@H](F)C7)nc5c3F)N([C@H](CC3CCOCC3)c3cc(F)cnc3N)CCO4)c12 [Compound 634, 2-amino-4-(4-((R)-1-(2-amino-5-fluoropyridin-3-yl)-2-(tetrahydro-2H-pyran-4-yl)ethyl)-10-fluoro-2-(((2R,7aS)-2-fluorotetrahydro-1H-pyrrolizin-7a(5H)-yl)methoxy)-8-(trifluoromethyl)-5,6-dihydro-4H-[1,4]oxazepino[5,6,7-de]quinazolin-9-yl)-7-fluorobenzo[b]thiophene-3-carbonitrile]	≤ 2000	≤ 2000	≤ 2000	≤ 2000
CON=C1CN2CCC[C@@]2(COc2nc3c4c(c(C(F)(F)F)c(-c5ccc(F)c6sc(N)c(C#N)c56)c(F)c4n2)OCCN3[C@H](C)c2cccnc2N)C1 (mixture of isomers) [Compound 622, 2-amino-4 ((S)-4-((R)-1-(2-aminopyridin-3-yl)ethyl)-10-fluoro-2-(((S)-2-(methoxyimino)tetrahydro-1H-pyrrolizin-7a (5H)-yl)methoxy)-8-(trifluoromethyl)-5,6-dihydro-4H-[1,4]oxazepino[5,6,7-de]quinazolin-9-yl)-7-fluorobenzo[b]thiophene-3-carbonitrile]	≤ 2000	≤ 2000	≤ 2000	≤ 2000
C=C1CN2CCC[C@@]2(COc2nc3c4c(c(C(F)(F)F)c(-c5ccc(F)c6sc(N)c(C#N)c56)c(F)c4n2)OCCN3[C@H](C)c2cc(F)cnc2N)C1 [Compound 620, 2-amino-4-(4-((R)-1-(2-amino-5-fluoropyridin-3-yl)ethyl)-10-fluoro-2-(((S)-2-methylenetetrahydro-1H-pyrrolizin-7a(5H)-yl)methoxy)-8-(trifluoromethyl)-5,6-dihydro-4H-[1,4]oxazepino[5,6,7-de]quinazolin-9-yl)-7-fluorobenzo[b]thiophene-3-carbonitrile]	≤ 2000	≤ 2000	≤ 2000	≤ 2000

Now from value to compound:

IC50 [1] [nM]	IC50 [2] [nM]	IC50 [3] [nM]	IC50 [4] [nM]	SMILES
≤ 2000	≤ 2000	≤ 2000	≤ 2000	C[C@H](c1cccnc1N)N1CCOc2c(C(F)(F)F)c(-c3ccc(F)c4sc(N)c(C#N)c34)c(F)c3nc(OCC4(CN5CCC(F)CC5)CC4)nc1c23 [Compound 836, 2-amino-4-(4-((R)-1-(2-aminopyridin-3-yl)ethyl)-10-fluoro-2-((1-((4-fluoropiperidin-1-yl)methyl)cyclopropyl)methoxy)-8-(trifluoromethyl)-5,6-dihydro-4H-[1,4]oxazepino[5,6,7-de]quinazolin-9-yl)-7-fluorobenzo[b]thiophene-3-carbonitrile]
≤ 2000	≤ 2000	≤ 2000	≤ 2000	N#Cc1c(N)sc2c(F)ccc(-c3c(Cl)c4c5c(nc(OC[C@@]67CCCN6C[C@@]6(CC6(F)F)C7)nc5c3F)N([C@@H](c3cccnc3N)C(F)F)CCO4)c12 [Compound 831, 2-amino-4-(4-((S)-1-(2-aminopyridin-3-yl)-2,2-difluoroethyl)-8-chloro-2-(((1S,7a′S)-2,2-difluorodihydro-1′H,3′H-spiro[cyclopropane-1,2′-pyrrolizin]-7a′(5′H)-yl)methoxy)-10-fluoro-5,6-dihydro-4H-[1,4]oxazepino[5,6,7-de]quinazolin-9-yl)-7-fluorobenzo[b]thiophene-3-carbonitrile]
≤ 2000	≤ 2000	≤ 2000	≤ 2000	COc1cnc(N)c([C@@H](C)N2CCOc3c(C(F)(F)F)c(-c4ccc(F)c5sc(N)c(C#N)c45)c(F)c4nc(OC[C@@]56CCCN5C[C@H](F)C6)nc2c34)c1 [Compound 815, 2-amino-4-(4-((R)-1-(2-amino-5-methoxypyridin-3-yl)ethyl)-10-fluoro-2-(((2R,7aS)-2-fluorotetrahydro-1H-pyrrolizin-7a(5H)-yl)methoxy)-8-(trifluoromethyl)-5,6-dihydro-4H-[1,4]oxazepino[5,6,7-de]quinazolin-9-yl)-7-fluorobenzo[b]thiophene-3-carbonitrile]
≤ 2000	≤ 2000	≤ 2000	≤ 2000	CCN1CC[C@H](OC)[C@H]1[C@H](C)Oc1nc2c3c(c(C(F)(F)F)c(-c4ccc(F)c5sc(N)c(C#N)c45)c(F)c3n1)OCCN2[C@H](C)c1cccnc1N [Compound 896, 2-amino-4-(4-((R)-1-(2-aminopyridin-3-yl)ethyl)-2-((S)-1-((2R,3S)-1-ethyl-3-methoxypyrrolidin-2-yl)ethoxy)-10-fluoro-8-(trifluoromethyl)-5,6-dihydro-4H-[1,4]oxazepino[5,6,7-de]quinazolin-9-yl)-7-fluorobenzo[b]thiophene-3-carbonitrile]
≤ 2000	≤ 2000	≤ 2000	≤ 2000	C[C@H](c1cncnc1N)N1CCOc2c(C(F)(F)F)c(-c3ccc(F)c4sc(N)c(C#N)c34)c(F)c3nc(OCC4(CN5CCC(=CF)CC5)CC4)nc1c23 [Compound 916, 2-amino-4-(4-((R)-1-(4-aminopyrimidin-5-yl)ethyl)-10-fluoro-2-((1-((4-(fluoromethylene)piperidin-1-yl)methyl)cyclopropyl)methoxy)-8-(trifluoromethyl)-5,6-dihydro-4H-[1,4]oxazepino[5,6,7-de]quinazolin-9-yl)-7-fluorobenzo[b]thiophene-3-carbonitrile]
